Measurements: patent US12077503B2, “Substituted cyclic amides and their use as herbicides” (FMC CORPORATION, priority 2015, dated 2024)

What was measured:
Type in all cases: in vivo
[1] = tested on: blackgrass (Alopecurus myosuroides); test: Test A postemergence; conditions: Alopecurus myosuroides, post-emergence, 240 h, Postemergence
Summary of the method: (§1)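 In a loam soil and sand blend, planted seeds got a preemergence directed soil spray, and young plants at the one- to two-leaf stage, 2–10 cm high, got a postemergence application; ~10 d greenhouse hold; injury rated visually, 0 = none, 100 = complete control.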

[2] = tested on: Galium (catchweed bedstraw, Galium aparine); test: Test A postemergence; conditions: Galium, post-emergence, 240 h, Postemergence
Summary of the method: as §1

Kochia (Kochia scoparia) [3] = test: Test A postemergence; conditions: Bassia scoparia, post-emergence, 240 h, Postemergence
Summary of the method: as §1

[4] = tested on: barnyardgrass (Echinochloa crus-galli); test: Test A postemergence; conditions: Echinochloa crus-galli, post-emergence, 240 h, Postemergence
Summary of the method: as §1

[5] = tested on: ragweed (common ragweed, Ambrosia elatior); test: Test A postemergence; conditions: Ambrosia artemisiifolia, post-emergence, 240 h, Postemergence
Summary of the method: as §1

[6] = tested on: pigweed (Amaranthus retroflexus); test: Test A postemergence; conditions: Amaranthus retroflexus, post-emergence, 240 h, Postemergence
Summary of the method: as §1

[7] = tested on: wheat (Triticum aestivum); test: Test A postemergence; conditions: Triticum aestivum, post-emergence, 240 h, Postemergence
Summary of the method: as §1

[8] = tested on: giant foxtail (Setaria faberii); test: Test A postemergence; conditions: Setaria faberi, post-emergence, 240 h, Postemergence
Summary of the method: as §1

[9] = tested on: ryegrass, Italian (Italian ryegrass, Lolium multiflorum); test: Test A postemergence; conditions: Lolium multiflorum, post-emergence, 240 h, Postemergence
Summary of the method: as §1

corn (Zea mays) = test: Test A postemergence; conditions: Zea mays, post-emergence, 240 h, Postemergence
Summary of the method: as §1

Kochia (Kochia scoparia) [10] = test: Test A preemergence; conditions: Bassia scoparia, pre-emergence, 240 h, 0 to 100 scale (0 no effect, 100 complete control), read-out: Plant response rating, Kochia
Summary of the method: as §1

[11] = tested on: barnyardgrass (Echinochloa crus-galli); test: Test A preemergence; conditions: Echinochloa crus-galli, pre-emergence, 240 h, 0 to 100 scale (0 no effect, 100 complete control), read-out: Plant response rating, Barnyardgrass
Summary of the method: as §1

[12] = tested on: ragweed (common ragweed, Ambrosia elatior); test: Test A preemergence; conditions: Ambrosia artemisiifolia, pre-emergence, 240 h, 0 to 100 scale (0 no effect, 100 complete control), read-out: Plant response rating, Ragweed
Summary of the method: as §1

[13] = tested on: pigweed (Amaranthus retroflexus); test: Test A preemergence; conditions: Amaranthus retroflexus, pre-emergence, 240 h, 0 to 100 scale (0 no effect, 100 complete control), read-out: Plant response rating, Pigweed
[14] = tested on: giant foxtail (Setaria faberii); test: Test A preemergence; conditions: Setaria faberi, pre-emergence, 240 h, 0 to 100 scale (0 no effect, 100 complete control), read-out: Plant response rating, Foxtail, Giant
Summary of the method: as §1

[15] = tested on: ryegrass, Italian (Italian ryegrass, Lolium multiflorum); test: Test A preemergence; conditions: Lolium multiflorum, pre-emergence, 240 h, 0 to 100 scale (0 no effect, 100 complete control), read-out: Plant response rating, Ryegrass, Italian
Summary of the method: as §1

In the case of `CN1C[C@H](c2ccc(C(F)(F)F)cc2)[C@@H](C(=O)Nc2ccccc2C#N)C1=O` [Compound 1379], the pest or weed control at 125 g/ha ([1]; 125 g ai/ha, visual rating about 10 d after treatment, read-out: Blackgrass plant response rating (0 to 100 scale)) is reported as 20%, the pest or weed control at 500 g/ha ([1]; 500 g ai/ha, visual injury, 0 to 100 scale (0 no effect, 100 complete control), approx. 10 d, read-out: Plant response rating, Blackgrass) is reported as 30% and the pest or weed control at 125 g/ha ([2]; 125 g ai/ha, visual rating about 10 d after treatment, read-out: Galium plant response rating (0 to 100 scale)) is reported as 40%. The pest or weed control at 500 g/ha ([2]; 500 g ai/ha, visual injury, 0 to 100 scale (0 no effect, 100 complete control), approx. 10 d, read-out: Plant response rating, Galium) was 60%, the pest or weed control at 125 g/ha (Kochia (Kochia scoparia) [3]; 125 g ai/ha, visual rating about 10 d after treatment, read-out: Kochia plant response rating (0 to 100 scale)) was 30% and the pest or weed control at 500 g/ha (Kochia (Kochia scoparia) [3]; 500 g ai/ha, visual injury, 0 to 100 scale (0 no effect, 100 complete control), approx. 10 d, read-out: Plant response rating, Kochia) was 60%. It also gave a pest or weed control at 125 g/ha ([4]; 125 g ai/ha, visual rating about 10 d after treatment, read-out: Barnyardgrass plant response rating (0 to 100 scale, 0 no effect, 100 complete control)) of 100%, a pest or weed control at 500 g/ha ([4]; 500 g ai/ha, visual injury, 0 to 100 scale (0 no effect, 100 complete control), approx. 10 d, read-out: Plant response rating, Barnyardgrass) of 100% and a pest or weed control at 125 g/ha ([5]; 125 g ai/ha, visual rating about 10 d after treatment, read-out: Ragweed plant response rating (0 to 100 scale)) of 30%. The pest or weed control at 500 g/ha ([5]; 500 g ai/ha, visual injury, 0 to 100 scale (0 no effect, 100 complete control), approx. 10 d, read-out: Plant response rating, Ragweed) was 60%, the pest or weed control at 125 g/ha ([6]; 125 g ai/ha, visual rating about 10 d after treatment, read-out: Pigweed plant response rating (0 to 100 scale)) was 20% and the pest or weed control at 500 g/ha ([6]; 500 g ai/ha, visual injury, 0 to 100 scale (0 no effect, 100 complete control), approx. 10 d, read-out: Plant response rating, Pigweed) was 50%. It also gave a plant injury at 125 g/ha ([7]; 125 g ai/ha, visual rating about 10 d after treatment, read-out: Wheat plant response rating (0 to 100 scale)) of 30%, a plant injury at 500 g/ha ([7]; 500 g ai/ha, visual injury, 0 to 100 scale (0 no effect, 100 complete control), approx. 10 d, read-out: Plant response rating, Wheat) of 50% and a pest or weed control at 125 g/ha ([8]; 125 g ai/ha, visual rating about 10 d after treatment, read-out: Foxtail, Giant plant response rating (0 to 100 scale)) of 80%. For the same molecule, the pest or weed control at 500 g/ha ([8]; 500 g ai/ha, visual injury, 0 to 100 scale (0 no effect, 100 complete control), approx. 10 d, read-out: Plant response rating, Foxtail, Giant) was 80%, the pest or weed control at 125 g/ha ([9]; 125 g ai/ha, visual rating about 10 d after treatment, read-out: Ryegrass, Italian plant response rating (0 to 100 scale)) was 30% and the pest or weed control at 500 g/ha ([9]; 500 g ai/ha, visual injury, 0 to 100 scale (0 no effect, 100 complete control), approx. 10 d, read-out: Plant response rating, Ryegrass, Italian) was 30%. For the same molecule, the plant injury at 125 g/ha (corn (Zea mays); 125 g ai/ha, visual rating about 10 d after treatment, read-out: Corn plant response rating (0 to 100 scale)) was 70%, the Corn plant response rating (crop injury, 0 = no effect, 100 = complete kill) at 500 g/ha (corn (Zea mays); 500 g ai/ha, visual injury, 0 to 100 scale (0 no effect, 100 complete control), approx. 10 d) was 70% and the pest or weed control at 500 g/ha (Kochia (Kochia scoparia) [10]; 500 g ai/ha, preemergence) was 90%. For the same molecule, the pest or weed control at 125 g/ha (Kochia (Kochia scoparia) [10]; Preemergence, 125 g ai/ha) was 90%, the pest or weed control at 500 g/ha ([11]; 500 g ai/ha, preemergence) was 100% and the pest or weed control at 125 g/ha ([11]; Preemergence, 125 g ai/ha) was 100%. For the same molecule, the pest or weed control at 500 g/ha ([12]; 500 g ai/ha, preemergence) was 90%, the pest or weed control at 125 g/ha ([12]; Preemergence, 125 g ai/ha) was 70% and the pest or weed control at 500 g/ha ([13]; 500 g ai/ha, preemergence) was 90%. The pest or weed control at 125 g/ha ([13]; Preemergence, 125 g ai/ha) was 80%, the pest or weed control at 500 g/ha ([14]; 500 g ai/ha, preemergence) was 100% and the pest or weed control at 125 g/ha ([14]; Preemergence, 125 g ai/ha) was 100%. For the same molecule, the pest or weed control at 500 g/ha ([15]; 500 g ai/ha, preemergence) was 50% and the pest or weed control at 125 g/ha ([15]; Preemergence, 125 g ai/ha) was 20%.
